ChEMBL document CHEMBL5346982, “Disrupting Kaposi's Sarcoma-Associated Herpesvirus (KSHV) Latent Replication with a Small Molecule Inhibitor” (J Med Chem, 2023)

Legend:
Human gammaherpesvirus 8 [1] = experiment: Inhibition of Kaposi's sarcoma-associated herpesvirus His-tagged oligomerization-deficient LANA DBD mutant (1008 to 1146 residues) assessed as disruption of LANA-DNA interaction at 250 uM preincubated with LBS1 representing 5'-Dy682-labeled double stranded DNA probe as substrate for 30 mins followed by compound addition and measured after 30 mins by Electrophoretic mobility shift assay
Human gammaherpesvirus 8 [2] = experiment: Antiviral activity against Kaposi's sarcoma-associated herpesvirus infected in human HEK293 cells transfected with KSHV pGTR4:73 with four terminal repeats and LANA expression cassette containing plasmid assessed as inhibition of LANA-mediated replication of viral latent replication origin TR sequence at 15.625 to 62.5 uM incubated for 3 days by Southern blot analysis; assay type: functional, organism-based; conditions: dose 15.625-62.5 µM, time 3.0 day

Structure (SMILES) | inhibition (Human gammaherpesvirus 8 [1]) [%] | Activity (Human gammaherpesvirus 8 [2])
COc1ccc(-c2cc(C)c(-n3cc(-c4ccc(C(=O)O)cc4)nn3)cn2)cn1 | < 10 | 
Cc1cc(-c2ccccc2)ncc1-n1cc(-c2ccc(C(=O)O)cc2)nn1 | < 10 | 
Cc1cc(-c2cccc(Cl)c2)ncc1-n1cc(-c2ccc(C(=O)O)cc2)nn1 | < 10 | 
COc1cccc(-c2cc(C)c(-n3cc(-c4ccc(C(=O)O)cc4)nn3)cn2)c1 | < 10 | 
COc1ccc(-c2cc(C)c(-n3cc(-c4ccc(C(=O)O)cc4)nn3)cn2)c(Cl)c1 |  | Dose-Dependent Effect
Cc1cc(-c2cccc(C(=O)O)c2)ncc1-n1cc(-c2ccc(C(=O)O)cc2)nn1 | < 10 | 
